Measured values from patent publication US10828372B2, “Compositions and methods for the inhibition of fibrosis” (WISCONSIN ALUMNI RESEARCH FOUNDATION, priority 2017, dated 2020).
Where no end group is shown, it is not given here. PEG10kDa = 10 kDa linear methoxy-PEG propionaldehyde on the N-terminus; PEG20kDa = 20 kDa linear methoxy-PEG propionaldehyde on the N-terminus

How the values were obtained:
[1] = test system: Alexa 488-labeled human plasma FN; assay: Matrix Assembly in vitro Assay (MAA), A488-FN deposition by AH1F fibroblasts; format: cell-based; settings: 24 hours, viability-normalized fluorescence, n=4, FUD run alongside each conjugate
Alexa 488-labeled human plasma FN, sequence (P02751 32-608 limits assumed): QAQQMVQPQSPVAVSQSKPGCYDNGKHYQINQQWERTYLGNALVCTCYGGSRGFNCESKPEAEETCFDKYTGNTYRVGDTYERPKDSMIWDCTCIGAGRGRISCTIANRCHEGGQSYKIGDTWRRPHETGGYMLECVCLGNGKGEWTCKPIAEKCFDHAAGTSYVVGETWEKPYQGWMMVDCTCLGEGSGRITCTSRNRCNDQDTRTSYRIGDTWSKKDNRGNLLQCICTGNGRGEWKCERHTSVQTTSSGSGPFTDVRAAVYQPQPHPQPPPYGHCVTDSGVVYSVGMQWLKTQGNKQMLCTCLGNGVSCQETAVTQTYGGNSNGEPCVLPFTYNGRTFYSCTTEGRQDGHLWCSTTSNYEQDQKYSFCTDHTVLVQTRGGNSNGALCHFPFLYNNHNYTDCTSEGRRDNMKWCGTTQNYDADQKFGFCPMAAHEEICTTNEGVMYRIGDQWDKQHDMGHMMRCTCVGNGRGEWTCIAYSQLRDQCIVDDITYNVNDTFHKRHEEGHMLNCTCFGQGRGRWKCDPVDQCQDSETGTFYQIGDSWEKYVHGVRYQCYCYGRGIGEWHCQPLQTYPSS
Procedure: Matrix Assembly Assay: The matrix assembly assay was conducted in the 96-well plate format as described in the art. AH1F human skin fibroblast cells resuspended in 2% fetal bovine serum were added to each well for a density of 60,000 cells per well. A 1 hr incubation period at 37° C. followed to allow cell adhesion and spreading. FUD, PEG-FUD, or PEG-mFUD were added to each well following incubation. Immediately, Alexa Fluor® 488 fluorescence labeled human plasma fibronectin (A488-FN) was then added to each well for a final FN concentration of 11 μg/mL. The cells were then incubated for 24 hours at 37° C. Non-assembled FN was removed from each well by washing with Hank's Balanced Salt Solution (HBSS) containing Ca^2+ and Mg^2+. The well volume was restored to 60 μL with HBSS and a fluorescence reading from the bottom of each well was taken using a Synergy™ H1 (Biotek) plate reader (excitation: 485 nm, Emission: 538 nm). Cell viability was quantified using CellTiter-Glo® cell viability assay using the manufacturer's protocol. A 30 μL aliquot of HBSS was removed from each well and was replaced with 30 μL of the luminescence reagent prepared shortly beforehand. Luminescence was quantified using the same plate reader. The average of fluorescence values of a no A488FN or inhibitor control group were routinely subtracted from the readings of each well and were normalized using each well's corresponding luminescence value. Lastly, the cell viability normalized fluorescence values were expressed as a percentage of the 0 nM drug control group. The final results were processed using Graphpad Prism 7.0 software. IC50 values were extracted using a four-parameter dose-response curve function. Student's t test was used to determine significance of differences among peptides at a given drug concentration.
The PEG-FUD FN fibrillogenesis inhibitory performance was evaluated in vitro using the matrix assembly assay (MAA). The methodology of this assay is depicted in FIG. 8. The MAA quantifies ECM deposition of exogenous AlexaFluor® 488-labeled FN (A488FN) by a confluent monolayer of fibroblasts after an incubation period by measuring fluorescence of deposited FN. In this study, the performance of PEG-FUD peptides was compared to that of FUD and the PEG-mFUD control peptide using the AH1F human foreskin fibroblast cell line.

human plasma FN = assay: Isothermal Titration calorimetry (ITC) of peptide binding to fibronectin; settings: pH 7.4 PBS, 25° C., triplicate
human plasma FN, sequence (P02751 32-608 limits assumed): as above
Procedure: Isothermal Titration calorimetry (ITC): ITC experiments were performed using a VP-ITC microcalorimeter (MicroCal, LLC) with a cell volume of 2.2 mL. In a typical experiment, the cell was filled with 1.4 mL of 2 μM human plasma FN and the syringe was filled with 1 mL of 28 μM FUD or PEG-FUD peptides. The temperature was set to 25° C. The titration experiment was performed in 39 injections (1×1, 4×4, and 34×8 μL) delivered in 120 sec intervals. Prior to injection, both FN and the peptides were dialyzed in separate dialysis bags overnight into the same PBS buffer (pH 7.4) solution. Routine analysis involved discarding of the first data point and subtraction of peptide into PBS buffer control run. Data were fit using one set of sites model Lavenberg-Marquardt nonlinear regression in Origin 7.0.
The binding of 10 kDa, 20 kDa, and 40 kDa PEG-FUD to FN was studied using Isothermal Titration calorimetry (ITC). This technique was used to determine the thermodynamic parameters as well as the binding constant (Kd) of the interaction. The peptide was injected into a human plasma FN solution in PBS at pH 7.4 and 25° C. in triplicate runs. […] A Kd of 6 (±3) nM was detected for FUD:FN. […] Similar entropy change of −65 (±3) cal/mol, −74 (±7) cal/mol, −66 (±7) cal/mol, and −73 (±2) and enthalpy change of −31 (±1) kcal/mol, −34 (±2) kcal/mol, −30 (±1) kcal/mol, and −32.5 (±0.5) kcal/mol were detected for the interaction of FUD and 10 kDa, 20 kDa, and 40 kDa PEG-FUD with FN, respectively. […] This observation is contrary to the expectation of PEG attachment diminishing a drug's affinity for its binding partner and presents an unexpected but desired feature of the PEG-FUD peptide.

[2] = Fluorescence imaging (IVIS) of subcutaneous dose absorption; format: in vivo, mouse; settings: for % dose remaining at the site of injection after 24 hours / apparent half-life at the site of injection: s.c. 12.5 mg/kg FUD equivalents; for apparent half-life at the site of injection: spiked with 1.5% Cy5 labeled drug, nude mice
Procedure: Preparation of Animal Experiment FUD and 10-40 kDa PEG-FUD Drug Dose: A 12.5 mg FUD equivalents per kg of mouse weight drug dose spiked with 1.5% Cy5 labeled drug was prepared by mixing an appropriate amount of unlabeled and labeled drug in a conical vial. The drug was then dialyzed ON into phosphate buffered saline (pH 7.4) using a 3000 MWCO dialysis membrane. The total volume of the dose was reduced to the appropriate value using a 3000 MWCO Amicon® Ultra-15 centrifugal unit. The final concentration of the drug was determined using a UV-vis spectrophotometer and the 646 nm extinction coefficient of Cy5, ε=271000 L·mol^−1·cm^−1.
10 week old mice weighing 20-23 g were placed under 2% isoflurane anesthesia and positioned on their abdomen inside of an IVIS Spectrum In Vivo Imaging System. A 100 uL dose containing 0.27 mg (12.5 mg/kg) of FUD or FUD equivalents of 10-40 kDa PEG-FUD that was spiked with 1.5% Cy5 labeled drug was delivered subcutaneously between the shoulder blades of the animals (n=3 per treatment group). The animals were imaged before the injection, immediately following injection, and at time points of 30 minutes and 1, 3, 6, 12, 24, 36, and 48 hours. The animals were sacrificed following the last time point and their organs were harvested for ex vivo fluorescence imaging and drug extraction and quantification. LivingImage® (PerkinElmer) software was used to analyze the views of each animal group. The autodraw feature of the software set to a 5% threshold was used to create unique regions of interest (ROI) on each animal at t=30 mins views that were consistently applied to each subsequent time point views to quantify drug levels present at the site of injection. Baseline autoflorescence values calculated from ROIs applied to “before injection” views were subtracted from the values of each time point's animals. The ROI values obtained from the t=30 mins views were used to calculate % dose remaining for each subsequent time point.

[3] = literature examples; cited from earlier work

## 10 kDa PEG-FUD: FUD N-terminally mono-PEGylated with 10 kDa linear methoxy-PEG propionaldehyde (PEG10kDa-KDQSPLAGESGETEYITEVYGNQQNPVDIDKKLPNETGFSGNMVETEDT)
[1]
  IC50: 17 nM
Human plasma FN
  Kd: 4.6 nM
[2]; fluorescence imaging
  migration into the site of injury (ear tag wound): migration of 10 K PEG-FUD into the site of injury
[2]
  % dose remaining at the site of injection after 24 hours: 1.2%
  apparent half-life at the site of injection: 2.8 h

## 20 kDa PEG-FUD: FUD N-terminally mono-PEGylated with 20 kDa linear methoxy-PEG propionaldehyde (PEG20kDa-KDQSPLAGESGETEYITEVYGNQQNPVDIDKKLPNETGFSGNMVETEDT)
[1]
  IC50: 23 nM
Human plasma FN
  Kd: 10 nM
[2]
  % dose remaining at the site of injection after 24 hours: 3.5%
  apparent half-life at the site of injection: 6.2 h

## 40 kDa PEG-FUD: FUD N-terminally mono-PEGylated with 40 kDa branched methoxy-PEG propionaldehyde ({mPEG 40 kDa branched}-KDQSPLAGESGETEYITEVYGNQQNPVDIDKKLPNETGFSGNMVETEDT)
[1]
  IC50: 20 nM
Human plasma FN
  Kd: 14.7 nM
[2]
  % dose remaining at the site of injection after 24 hours: 7.9%
  apparent half-life at the site of injection: 8.7 h

## PEG-G120K-GH: literature example of a PEGylated protein with reduced activity
[3]
  reduction of activity upon PEGylation: 186 fold
